According to the CombiSolv-Exp solvation set (Vermeire and Green 2021):

Test: solvent given as SMILES

Question: Which results are given for CC(C)C(C)(C)O?
Answer: solvation free energy, 298 K (in CCCCCCCC): -4.6 kcal/mol; solvation free energy, 298 K (in CCCCCCCCCC): -4.55 kcal/mol

Question: Which “solvation free energy, 298 K” value (in O) does the source give for CCCCCc1ccccc1 here?
Answer: -0.23 kcal/mol

Question: Which “solvation free energy, 298 K” value (in C1CCCC1) does the source give for ClC(Cl)=C(Cl)Cl here?
Answer: -5.37 kcal/mol

Question: What about the “solvation free energy, 298 K” value (in C1CCOC1) of the same molecule?
Answer: -5.43 kcal/mol

Question: What about the “solvation free energy, 298 K” value (in C1COCCO1) of the same molecule?
Answer: -5.1 kcal/mol

Question: What about the “solvation free energy, 298 K” value (in CCC(C)=O) of the same molecule?
Answer: -4.98 kcal/mol

Question: And the “solvation free energy, 298 K” value (in CCCCCCCCCCCCCCCC)?
Answer: -4.88 kcal/mol

Question: What about the “solvation free energy, 298 K” value (in CS(C)=O) of the same molecule?
Answer: -4.27 kcal/mol

Question: And the “solvation free energy, 298 K” value (in ClC(Cl)(Cl)Cl)?
Answer: -5.48 kcal/mol

Question: And the “solvation free energy, 298 K” value (in ClCCCl)?
Answer: -5.05 kcal/mol

Question: And the “solvation free energy, 298 K” value (in O)?
Answer: -0.06 kcal/mol

Question: With Clc1ccc(-c2ccccc2Cl)cc1 as the molecule, how does the “solvation free energy, 298 K” value (in CCCCCCCCO) read?
Answer: -10 kcal/mol

Question: And the “solvation free energy, 298 K” value (in O)?
Answer: -2.58 kcal/mol

Question: Which “solvation free energy, 298 K” value (in O) does the source give for CCC(=O)Nc1ccc(Cl)c(Cl)c1 here?
Answer: -7.78 kcal/mol

Question: For O=C(O)CCCCCCCc1ccccc1, which “solvation free energy, 298 K” value (in O) is on record?
Answer: -8.98 kcal/mol

Question: Which results are given for CCCCCCCCCCCCCCCCCCCCCCCCCCCC?
Answer: solvation free energy, 298 K (in CC(=O)N(C)C): -18.9 kcal/mol; solvation free energy, 298 K (in CC(C)(C)O): -16.9 kcal/mol; solvation free energy, 298 K (in CCC(C)=O): -17.1 kcal/mol; solvation free energy, 298 K (in CCCCCO): -17 kcal/mol; solvation free energy, 298 K (in CCCCO): -16.7 kcal/mol; solvation free energy, 298 K (in CCCCOC(C)=O): -17.9 kcal/mol; solvation free energy, 298 K (in CCCO): -16.4 kcal/mol; solvation free energy, 298 K (in CN(C)C=O): -19 kcal/mol; solvation free energy, 298 K (in Cc1ccc(C)cc1): -19.3 kcal/mol; solvation free energy, 298 K (in Cc1cccc(C)c1): -19.2 kcal/mol; solvation free energy, 298 K (in ClCCl): -18.6 kcal/mol; solvation free energy, 298 K (in O): 5.92 kcal/mol

Question: Which “solvation free energy, 298 K” value (in O) does the source give for CCCC(=O)CC(C)=O here?
Answer: -4.39 kcal/mol

Question: For FC(F)(Cl)C(F)(F)Cl, which “solvation free energy, 298 K” value (in CCCCCCCC(=O)OCC(COC(=O)CCCCCCC)OC(=O)CCCCCCC) is on record?
Answer: -1.63 kcal/mol

Question: And the “solvation free energy, 298 K” value (in CCCCCCCCO)?
Answer: -1.61 kcal/mol

Question: What about the “solvation free energy, 298 K” value (in CN1CCCC1=O) of the same molecule?
Answer: -1.49 kcal/mol

Question: What about the “solvation free energy, 298 K” value (in CN(C)C=O) of the same molecule?
Answer: -1.6 kcal/mol

Question: And the “solvation free energy, 298 K” value (in O)?
Answer: 2.25 kcal/mol

Question: With CCCCOC(=O)c1ccc(O)cc1 as the molecule, how does the “solvation free energy, 298 K” value (in O) read?
Answer: -8.72 kcal/mol

Question: What does the source list for CC(C)CCO?
Answer: solvation free energy, 298 K (in Brc1ccccc1): -5.27 kcal/mol; solvation free energy, 298 K (in C1CCOC1): -6.32 kcal/mol; solvation free energy, 298 K (in CC#N): -5.58 kcal/mol; solvation free energy, 298 K (in CC(C)O): -6.51 kcal/mol; solvation free energy, 298 K (in CCCCCC): -4.05 kcal/mol; solvation free energy, 298 K (in CCCCCCC): -3.96 kcal/mol; solvation free energy, 298 K (in CCCCCCCC): -3.98 kcal/mol; solvation free energy, 298 K (in CCCCCCCCCCO): -6.18 kcal/mol; solvation free energy, 298 K (in CCCCCCCCO): -6.08 kcal/mol; solvation free energy, 298 K (in CCCCOC(C)=O): -5.78 kcal/mol; solvation free energy, 298 K (in CO): -6.77 kcal/mol; solvation free energy, 298 K (in Cc1ccc(C)cc1): -4.93 kcal/mol; solvation free energy, 298 K (in Cc1cccc(C)c1): -4.93 kcal/mol; solvation free energy, 298 K (in Cc1ccccc1C): -4.94 kcal/mol; solvation free energy, 298 K (in Clc1ccccc1): -5.13 kcal/mol; solvation free energy, 298 K (in O): -4.41 kcal/mol; solvation free energy, 298 K (in [2H]O[2H]): -4.43 kcal/mol

Question: With CCCOC as the molecule, how does the “solvation free energy, 298 K” value (in O) read?
Answer: -1.66 kcal/mol

Question: With CCCCCCCCC=CCCCCCCCC(=O)OC as the molecule, how does the “solvation free energy, 298 K” value (in O) read?
Answer: -2.13 kcal/mol

Question: For Clc1cccc(Cl)c1-c1c(Cl)cccc1Cl, which “solvation free energy, 298 K” value (in O) is on record?
Answer: -2.17 kcal/mol

Question: For FC(F)(Cl)C(F)(Cl)Cl, which “solvation free energy, 298 K” value (in C1CCOC1) is on record?
Answer: -3.37 kcal/mol

Question: What about the “solvation free energy, 298 K” value (in CC(C)=O) of the same molecule?
Answer: -3.31 kcal/mol

Question: And the “solvation free energy, 298 K” value (in CCC(C)=O)?
Answer: -3.36 kcal/mol

Question: What about the “solvation free energy, 298 K” value (in CCOC(C)=O) of the same molecule?
Answer: -3.4 kcal/mol

Question: What about the “solvation free energy, 298 K” value (in COC(C)(C)C) of the same molecule?
Answer: -3.62 kcal/mol

Question: And the “solvation free energy, 298 K” value (in COC(C)=O)?
Answer: -3.38 kcal/mol

Question: And the “solvation free energy, 298 K” value (in Cc1cccc(C)c1)?
Answer: -3.37 kcal/mol

Question: And the “solvation free energy, 298 K” value (in ClC(Cl)(Cl)Cl)?
Answer: -3.27 kcal/mol

Question: And the “solvation free energy, 298 K” value (in ClC(Cl)Cl)?
Answer: -3.46 kcal/mol

Question: And the “solvation free energy, 298 K” value (in ClCCCl)?
Answer: -2.8 kcal/mol

Question: What about the “solvation free energy, 298 K” value (in O) of the same molecule?
Answer: 1.77 kcal/mol

Question: Which “solvation free energy, 298 K” value (in C=CCCCCCCC=C) does the source give for O=C(O)c1ccc2ccccc2c1 here?
Answer: -9.58 kcal/mol

Question: What about the “solvation free energy, 298 K” value (in C=CCCCCCCCCCCCCCC) of the same molecule?
Answer: -9.37 kcal/mol

Question: And the “solvation free energy, 298 K” value (in O)?
Answer: -8.54 kcal/mol

Question: For COC(=O)C(C)(C)C, which “solvation free energy, 298 K” value (in O) is on record?
Answer: -2.4 kcal/mol

Question: For COC(=O)c1ccccc1O, which “solvation free energy, 298 K” value (in Cc1ccc(C)cc1) is on record?
Answer: -7.64 kcal/mol

Question: For CCCCN(CCC)N=O, which “solvation free energy, 298 K” value (in CC(C)CC(C)(C)C) is on record?
Answer: -7.18 kcal/mol

Question: And the “solvation free energy, 298 K” value (in O)?
Answer: -5.12 kcal/mol

Question: With Cc1ccccn1 as the molecule, how does the “solvation free energy, 298 K” value (in CC(C)(C)O) read?
Answer: -5.91 kcal/mol

Question: What about the “solvation free energy, 298 K” value (in CC(C)CC(C)(C)C) of the same molecule?
Answer: -4.69 kcal/mol

Question: What about the “solvation free energy, 298 K” value (in CC(C)CO) of the same molecule?
Answer: -6.19 kcal/mol

Question: And the “solvation free energy, 298 K” value (in CC(C)O)?
Answer: -5.88 kcal/mol

Question: And the “solvation free energy, 298 K” value (in CCC(C)O)?
Answer: -6 kcal/mol

Question: And the “solvation free energy, 298 K” value (in CCOC(C)=O)?
Answer: -5.67 kcal/mol

Question: And the “solvation free energy, 298 K” value (in O)?
Answer: -4.63 kcal/mol

Question: For Oc1c(Cl)c(Cl)c(Cl)c(Cl)c1Cl, which “solvation free energy, 298 K” value (in CCCCCCCCC=CCCCCCCCC(=O)OCC(COC(=O)CCCCCCCC=CCCCCCCCC)OC(=O)CCCCCCCC=CCCCCCCCC) is on record?
Answer: -10.3 kcal/mol

Question: What about the “solvation free energy, 298 K” value (in O) of the same molecule?
Answer: -4.99 kcal/mol

Question: With NCCO as the molecule, how does the “solvation free energy, 298 K” value (in CCCCCCC) read?
Answer: -2.5 kcal/mol

Question: Which “solvation free energy, 298 K” value (in O) does the source give for CCOCCOC(C)=O here?
Answer: -5.31 kcal/mol

Question: For Cc1ccc(C(=O)O)cc1C, which “solvation free energy, 298 K” value (in CN(C)C=O) is on record?
Answer: -11.6 kcal/mol

Question: And the “solvation free energy, 298 K” value (in O)?
Answer: -6.55 kcal/mol

Question: For Clc1cc(Cl)c(-c2c(Cl)cccc2Cl)c(Cl)c1, which “solvation free energy, 298 K” value (in O) is on record?
Answer: -1.96 kcal/mol

Question: Which “solvation free energy, 298 K” value (in CCO) does the source give for CN1C2CCC1CC(OC(=O)C(CO)c1ccccc1)C2 (stereo not drawn) here?
Answer: -18 kcal/mol
